What follows are compounds tested against T1, mutant CFTR (Homo sapiens, UniProt P13569, DEL508-508) (assay: Fluorescence (HS-YFP) assay for CFTR activity, corrector assay). Conditions: CFBE41o- and FRT cells with stable expression of mutant CFTR, 24 h compound treatment.
T1 construct: expressed in transfected cells
Type: cell-based
Method in brief: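 CFBE41o- or FRT cells stably expressing mutant CFTR and HS-YFP were exposed to compounds for 24 h (corrector mode), then stimulated 30 min at 37° C with forskolin (20 μM) plus genistein (50 μM). YFP quenching after 100 mM iodide injection; initial slope from exponential fit of final 10 s; EC50 reported.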

T1 sequence (P13569 with tags, fused parts or gaps DEL508-508): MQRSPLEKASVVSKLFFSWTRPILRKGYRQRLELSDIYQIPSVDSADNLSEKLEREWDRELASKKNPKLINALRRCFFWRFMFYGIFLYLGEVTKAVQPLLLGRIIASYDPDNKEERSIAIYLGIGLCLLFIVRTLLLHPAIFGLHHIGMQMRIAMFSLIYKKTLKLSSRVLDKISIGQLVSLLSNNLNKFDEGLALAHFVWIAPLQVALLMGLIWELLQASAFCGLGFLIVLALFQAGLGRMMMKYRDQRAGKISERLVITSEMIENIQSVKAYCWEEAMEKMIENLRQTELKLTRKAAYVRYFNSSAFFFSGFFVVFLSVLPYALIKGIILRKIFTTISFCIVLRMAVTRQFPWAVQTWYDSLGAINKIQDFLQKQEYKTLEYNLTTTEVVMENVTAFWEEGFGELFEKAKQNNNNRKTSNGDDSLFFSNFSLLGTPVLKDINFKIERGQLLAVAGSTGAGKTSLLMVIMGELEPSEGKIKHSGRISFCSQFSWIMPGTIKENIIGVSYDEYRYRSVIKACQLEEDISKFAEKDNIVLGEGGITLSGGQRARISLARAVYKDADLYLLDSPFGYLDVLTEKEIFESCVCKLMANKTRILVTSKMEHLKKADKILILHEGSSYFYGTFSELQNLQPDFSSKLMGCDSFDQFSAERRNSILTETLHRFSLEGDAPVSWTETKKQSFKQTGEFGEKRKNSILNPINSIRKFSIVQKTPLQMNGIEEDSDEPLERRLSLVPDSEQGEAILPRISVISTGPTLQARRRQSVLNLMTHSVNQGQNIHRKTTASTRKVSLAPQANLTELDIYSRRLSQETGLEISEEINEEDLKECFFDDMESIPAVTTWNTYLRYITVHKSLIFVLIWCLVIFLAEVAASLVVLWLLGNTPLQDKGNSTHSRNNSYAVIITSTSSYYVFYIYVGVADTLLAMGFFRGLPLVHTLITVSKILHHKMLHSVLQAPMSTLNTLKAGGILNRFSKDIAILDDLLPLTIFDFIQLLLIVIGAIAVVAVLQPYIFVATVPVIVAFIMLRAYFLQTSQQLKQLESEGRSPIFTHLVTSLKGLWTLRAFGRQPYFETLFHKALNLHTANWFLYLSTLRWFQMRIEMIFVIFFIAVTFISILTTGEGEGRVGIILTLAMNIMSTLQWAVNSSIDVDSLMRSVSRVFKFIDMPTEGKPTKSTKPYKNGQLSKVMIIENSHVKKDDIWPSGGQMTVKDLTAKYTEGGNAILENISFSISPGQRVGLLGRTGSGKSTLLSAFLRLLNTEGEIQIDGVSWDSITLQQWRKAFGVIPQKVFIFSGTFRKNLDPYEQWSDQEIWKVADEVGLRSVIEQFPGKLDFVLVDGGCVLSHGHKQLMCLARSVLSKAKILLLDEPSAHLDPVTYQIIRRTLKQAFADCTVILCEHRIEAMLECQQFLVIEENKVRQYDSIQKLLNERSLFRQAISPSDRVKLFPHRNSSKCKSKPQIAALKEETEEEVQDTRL

SMILES | EC50
Cc1c(Cl)c(C(F)(F)F)nn1-c1cccc(C(=O)N(C)c2ccc3c(c2)OC(F)(F)O3)c1 [compound 095, 3-[4-Chloro-5-methyl-3-(trifluoromethyl)pyrazol-1-yl]-N-(2,2-difluoro-1,3-benzodioxol-5-yl)-N-methyl-benzamide] | < 1000 nM
Cc1c(Cl)c(C(F)(F)F)nn1-c1cccc(C(=O)N(C)c2ccc3c(c2)OCCO3)c1 [compound 096, 3-[4-Chloro-5-methyl-3-(trifluoromethyl)pyrazol-1-yl]-N-(2,3-dihydro-1,4-benzodioxin-6-yl)-N-methyl-benzamide] | < 1000 nM
Cc1cc(C2CC2)n(-c2cccc(C(=O)N(C)c3ccc4c(c3)OCO4)c2)n1 [compound 097, N-(1,3-Benzodioxol-5-yl)-3-(5-cyclopropyl-3-methyl-pyrazol-1-yl)-N-methyl-benzamide] | < 1000 nM
CC(C)Cc1c(Cl)c(C(F)(F)F)nn1-c1cccc(C(=O)N(C)c2ccc3c(c2)OCO3)c1 [compound 101, N-(1,3-Benzodioxol-5-yl)-3-[4-chloro-5-isobutyl-3-(trifluoromethyl)pyrazol-1-yl]-N-methyl-benzamide] | < 1000 nM
Cc1nn(-c2cccc(C(=O)N(C)c3ccc4c(c3)OCO4)c2)c(C(F)(F)F)c1Cl [compound 102, N-(1,3-Benzodioxol-5-yl)-3-[4-chloro-3-methyl-5-(trifluoromethyl)pyrazol-1-yl]-N-methyl-benzamide] | < 1000 nM
CCOC(=O)c1c(Cl)c(C)nn1-c1cccc(C(=O)N(C)c2ccc3c(c2)OCCO3)c1 [compound 103, Ethyl 4-chloro-2-[3-[2,3-dihydro-1,4-benzodioxin-6-yl (methyl)carbamoyl]phenyl]-5-methyl-pyrazole-3-carboxylate] | < 1000 nM
Cc1c(C2CC2)c(C(F)(F)F)nn1-c1cccc(C(=O)N(C)c2ccc3c(c2)OCO3)c1 [compound 104, N-(1,3-Benzodioxol-5-yl)-3-[4-cyclopropyl-5-methyl-3-(trifluoromethyl)pyrazol-1-yl]-N-methyl-benzamide] | < 1000 nM
Cc1nn(-c2cccc(C(=O)N(C)c3ccc4c(c3)OCO4)c2)c(CO)c1Cl [compound 105, N-(1,3-benzodioxol-5-yl)-3-[4-chloro-5-(hydroxylmethyl)-3-methyl-pyrazol-1-yl]-N-methyl-benzamide] | 1000 to 2000 nM
Cc1c(Cl)c(C(F)(F)F)nn1-c1cccc(C(=O)N(C)c2cc3c(cc2Cl)OCO3)c1 [compound 106, N-(6-Chloro-1,3-benzodioxol-5-yl)-3-[4-chloro-5-methyl-3-(trifluoromethyl)pyrazol-1-yl]-N-methyl-benzamide] | < 1000 nM
COCc1c(Cl)c(C)nn1-c1cccc(C(=O)N(C)c2ccc3c(c2)OCO3)c1 [compound 107, N-(1,3-benzodioxol-5-yl)-3-[4-chloro-5-(methoxymethyl)-3-methyl-pyrazol-1-yl]-N-methyl-benzamide] | < 1000 nM
CC(C)Cc1c(Cl)c(C(F)(F)F)nn1-c1cccc(C(=O)N(C)c2cc3c(cc2Cl)OCO3)c1 [compound 110, N-(6-Chloro-1,3-benzodioxol-5-yl)-3-[4-chloro-5-isobutyl-3-(trifluoromethyl)pyrazol-1-yl]-N-methyl-benzamide] | < 1000 nM
CN(C(=O)c1cccc(-n2nc(C(F)(F)F)c(Cl)c2C2CC2)c1)c1ccc2c(c1)OCO2 [compound 111, N-(1,3-Benzodioxol-5-yl)-3-[4-chloro-5-cyclopropyl-3-(trifluoromethyl)pyrazol-1-yl]-N-methyl-benzamide] | < 1000 nM
Cc1nn(-c2cccc(C(=O)N(C)c3ccc4c(c3)OCO4)c2)c(C=O)c1Cl [compound 112, N-(1,3-benzodioxol-5-yl)-3-(4-chloro-5-formyl-3-methyl-pyrazol-1-yl)-N-methyl-benzamide] | < 1000 nM
Cc1nn(-c2cccc(C(=O)N(C)c3ccc4c(c3)OCO4)c2)c(C(C)(C)O)c1Cl [compound 115, N-(1,3-Benzodioxol-5-yl)-3-[4-chloro-5-(1-hydroxy-1-methyl-ethyl)-3-methyl-pyrazol-1-yl]-N-methyl-benzamide] | 1000 to 2000 nM
CC(=O)c1c(Cl)c(C)nn1-c1cccc(C(=O)N(C)c2ccc3c(c2)OCO3)c1 [compound 116, 3-(5-Acetyl-4-chloro-3-methyl-pyrazol-1-yl)-N-(1,3-benzodioxol-5-yl)-N-methyl-benzamide] | < 1000 nM
Cc1nn(-c2cccc(C(=O)N(C)c3ccc4c(c3)OCO4)c2)c(COc2ccccc2)c1Cl [compound 118, N-(1,3-Benzodioxol-5-yl)-3-[4-chloro-3-methyl-5-(phenoxymethyl)pyrazol-1-yl]-N-methyl-benzamide] | < 1000 nM
Cc1nn(-c2cccc(C(=O)N(C)c3ccc4c(c3)OCO4)c2)c(C(=O)c2ccccc2)c1Cl [compound 119, N-(1,3-benzodioxol-5-yl)-3-(5-benzoyl-4-chloro-3-methyl-pyrazol-1-yl)-N-methyl-benzamide] | < 1000 nM

SMILES | EC50
Cc1nc2ccc(NC(=O)c3cccc(-n4nc(C(F)(F)F)c(Cl)c4C)c3)cc2o1 [compound 120, 3-[4-Chloro-5-methyl-3-(trifluoromethyl)pyrazol-1-yl]-N-(2-methyl-1,3-benzoxazol-6-yl)benzamide] | 1000 to 2000 nM
Cc1c(Cl)c(C(F)(F)F)nn1-c1cccc(C(=O)N(C)c2ccc3cn(C)nc3c2)c1 [compound 122, 3-[4-Chloro-5-methyl-3-(trifluoromethyl)pyrazol-1-yl]-N-methyl-N-(2-methylindazol-6-yl)benzamide] | 1000 to 2000 nM
Cc1nc2cc(Cl)c(N(C)C(=O)c3cccc(-n4nc(C(F)(F)F)c(Cl)c4C)c3)cc2o1 [compound 123, N-(5-Chloro-2-methyl-1,3-benzoxazol-6-yl)-3-[4-chloro-5-methyl-3-(trifluoromethyl)pyrazol-1-yl]-N-methyl-benzamide] | < 1000 nM
CN(C(=O)c1cccc(-n2nc(C(F)(F)F)c(Cl)c2-c2ccccc2)c1)c1ccc2c(c1)OCO2 [compound 124, N-(1,3-Benzodioxol-5-yl)-3-[4-chloro-5-phenyl-3-(trifluoromethyl)pyrazol-1-yl]-N-methyl-benzamide] | < 1000 nM
Cc1c(F)c(C(F)(F)F)nn1-c1cccc(C(=O)N(C)c2ccc3c(c2)OCO3)c1 [compound 126, N-(1,3-Benzodioxol-5-yl)-3-[4-fluoro-5-methyl-3-(trifluoromethyl)pyrazol-1-yl]-N-methyl-benzamide] | < 1000 nM
Cc1c(Cl)c(C(F)(F)F)nn1-c1cccc(C(=O)Nc2cc3c(cc2Cl)OCO3)c1 [compound 127, N-(6-Chloro-1,3-benzodioxol-5-yl)-3-[4-chloro-5-methyl-3-(trifluoromethyl)pyrazol-1-yl]benzamide] | > 2000 nM
Cc1c(Cl)c(C(F)(F)F)nn1-c1cccc(C(=O)Nc2ccc3c(c2)OCO3)c1 [compound 128, N-(1,3-Benzodioxol-5-yl)-3-[4-chloro-5-methyl-3-(trifluoromethyl)pyrazol-1-yl]benzamide] | > 2000 nM
Cc1nnc(-c2c(Cl)c(C)nn2-c2cccc(C(=O)N(C)c3ccc4c(c3)OCO4)c2)o1 [compound 129, N-(1,3-Benzodioxol-5-yl)-3-[4-chloro-3-methyl-5-(5-methyl-1,3,4-oxadiazol-2-yl)pyrazol-1-yl]-N-methyl-benzamide] | < 1000 nM
CCOC(=O)c1cc(C(F)(F)F)nn1-c1cccc(C(=O)N(C)c2ccc3c(c2)OCO3)c1 [compound 130, Ethyl 2-[3-[1,3-benzodioxol-5-yl(methyl)carbamoyl]phenyl]-5-(trifluoromethyl)pyrazole-3-carboxylate] | < 1000 nM
CC(C)Oc1cc(C(F)(F)F)nn1-c1cccc(C(=O)N(C)c2ccc3c(c2)OCO3)c1 [compound 131, N-(1,3-benzodioxol-5-yl)-3-[5-isopropoxy-3-(trifluoromethyl)pyrazol-1-yl]-N-methyl-benzamide] | < 1000 nM
CN(C(=O)c1cccc(-n2nc(C(F)(F)F)cc2OCc2ccccc2)c1)c1ccc2c(c1)OCO2 [compound 132, N-(1,3-benzodioxol-5-yl)-3-[5-benzyloxy-3-(trifluoromethyl)pyrazol-1-yl]-N-methyl-benzamide] | < 1000 nM
CN(C(=O)c1cccc(-n2nc(C(F)(F)F)cc2OCCc2ccccc2)c1)c1ccc2c(c1)OCO2 [compound 133, N-(1,3-Benzodioxol-5-yl)-N-methyl-3-[5-phenethyloxy-3-(trifluoromethyl)pyrazol-1-yl]benzamide] | < 1000 nM
CN(C(=O)c1cccc(-n2nc(C(F)(F)F)c(Cl)c2OCc2ccccc2)c1)c1ccc2c(c1)OCO2 [compound 134, N-(1,3-Benzodioxol-5-yl)-3-[5-benzyloxy-4-chloro-3-(trifluoromethyl)pyrazol-1-yl]-N-methyl-benzamide] | < 1000 nM
CCN(C(=O)c1cccc(-n2nc(C(F)(F)F)c(Cl)c2C2CC2)c1)c1ccc2nc(C)oc2c1 [compound 135, 3-[4-Chloro-5-cyclopropyl-3-(trifluoromethyl)pyrazol-1-yl]-N-ethyl-N-(2-methyl-1,3-benzoxazol-6-yl)benzamide] | < 1000 nM
Cc1nc2ccc(N(C)C(=O)c3cccc(-n4nc(C(F)(F)F)c(Cl)c4C4CC4)c3)cc2o1 [compound 137, 3-[4-Chloro-5-cyclopropyl-3-(trifluoromethyl)pyrazol-1-yl]-N-methyl-N-(2-methyl-3-benzoxazol-6-yl)benzamide] | < 1000 nM
[2H]C([2H])([2H])N(C(=O)c1cccc(-n2nc(C(F)(F)F)c(Cl)c2C2CC2)c1)c1ccc2nc(C)oc2c1 [compound 138, 3-[4-Chloro-5-cyclopropyl-3-(trifluoromethyl)pyrazol-1-yl]-N-(2-methyl-1,3-benzoxazol-6-yl)-N-(trideuteriomethyl)benzamide] | < 1000 nM
Cc1nc2cc(Cl)c(N(C)C(=O)c3cccc(-n4nc(C(F)(F)F)c(Cl)c4C4CC4)c3)cc2o1 [compound 139, 3-[4-Chloro-5-cyclopropyl-3-(trifluoromethyl)pyrazol-1-yl]-N-(5-chloro-2-methyl-1,3-benzoxazol-6-yl)-N-methyl-benzamide] | < 1000 nM
